From publication PMC9437094, “Docking study, molecular dynamic, synthesis, anti-α-glucosidase assessment, and ADMET prediction of new benzimidazole-Schiff base derivatives” (Scientific Reports, 2022)
Like-named read-outs stand apart in the source and are kept apart here. One block for each compound: values may come before it.

Experiments:
[1] = target: α-glucosidase from Saccharomyces cerevisiae (Saccharomyces cerevisiae, UniProt P53341); assay: biochemical; format: biochemical; conditions: for IC50: substrate p-nitrophenyl glucopyranoside, 37 °C
Sequence of α-glucosidase from Saccharomyces cerevisiae (P53341 whole entry): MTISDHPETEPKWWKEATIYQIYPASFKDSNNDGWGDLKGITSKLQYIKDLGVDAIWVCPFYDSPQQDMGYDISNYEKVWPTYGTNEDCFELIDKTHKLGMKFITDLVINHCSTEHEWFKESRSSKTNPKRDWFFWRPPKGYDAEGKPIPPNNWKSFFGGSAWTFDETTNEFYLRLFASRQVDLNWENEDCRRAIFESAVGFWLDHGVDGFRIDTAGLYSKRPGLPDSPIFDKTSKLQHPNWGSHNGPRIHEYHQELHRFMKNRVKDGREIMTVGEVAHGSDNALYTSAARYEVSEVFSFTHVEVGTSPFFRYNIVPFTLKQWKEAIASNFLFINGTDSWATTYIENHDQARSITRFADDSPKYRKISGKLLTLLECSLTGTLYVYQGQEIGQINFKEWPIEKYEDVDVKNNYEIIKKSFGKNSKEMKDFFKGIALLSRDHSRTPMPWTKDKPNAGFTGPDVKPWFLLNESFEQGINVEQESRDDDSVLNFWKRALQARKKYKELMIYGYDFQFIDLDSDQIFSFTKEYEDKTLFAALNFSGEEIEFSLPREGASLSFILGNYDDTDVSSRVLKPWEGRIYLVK
Description: Next, absorbance was measured at 405 nm by spectrophotometer (Gen5, Power wave xs2, BioTek, USA), and IC50 value for each tested compound was calculated by taking advantage of the nonlinear regression curve (logit method).

[2] = tested on: MCF-7; assay: MTT cytotoxicity assay on MCF-7; format: cell-based; conditions: MCF-7 human cancer cell line, at 200 μM
[3] = target: α-glucosidase (Saccharomyces cerevisiae, UniProt P53341); assay: Enzyme kinetic study (Lineweaver–Burk and secondary plot); format: biochemical
Sequence of α-glucosidase (P53341 whole entry): as above
Description: Furthermore, the plot of the Km versus different concentrations of compound 8p gave an estimate of Ki as the inhibition constant (Fig. 2b). Ki value for the latter compound was 60 µM.
A Lineweaver–Burk plot was generated to identify the type of inhibition and the Michaelis–Menten constant (Km) value was determined from plot between reciprocal of the substrate concentration (1/[S]) and reciprocal of enzyme rate (1/V) over various inhibitor concentrations. Experimental inhibitor constant (Ki) value was constructed by secondary plots of the inhibitor concentration [I] versus Km.

[4] = tested on: HDF; assay: MTT cytotoxicity assay on HDF; format: cell-based; conditions: HDF human normal cell line, at 200 μM

SMILES: COc1ccc(-c2nc3cc(C(=O)N/N=C/c4cc5c(cc4[N+](=O)[O-])OCO5)ccc3[nH]2)cc1 [Compound 8o, (E)-2-(4-methoxyphenyl)-N'-((6-nitrobenzo[d][1,3]dioxol-5-yl)methylene)-1H-benzo[d]imidazole-5-carbohydrazide]
IC50 ([1]; IC50, yeast α-glucosidase): 123 ± 6.1 µM
melting point: > 250 °C

SMILES: COc1ccc(-c2nc3cc(C(=O)N/N=C/c4cccc(O)c4)ccc3[nH]2)cc1 [Compound 8f, (E)-N'-(3-hydroxybenzylidene)-2-(4-methoxyphenyl)-1H-benzo[d]imidazole-5-carbohydrazide]
IC50 ([1]; IC50, yeast α-glucosidase): 181 ± 8.5 µM

SMILES: COc1ccc(-c2nc3cc(C(=O)N/N=C/c4cccc(Br)c4)ccc3[nH]2)cc1 [Compound 8m, (E)-N'-(3-bromobenzylidene)-2-(4-methoxyphenyl)-1H-benzo[d]imidazole-5-carbohydrazide]
IC50 ([1]; IC50, yeast α-glucosidase): 97 ± 4.4 µM
melting point: > 250 °C

IC50 ([1]; yeast α-glucosidase, read-out: IC50): 287 ± 7.4 µM
melting point: > 250 °C
SMILES: COc1ccc(-c2nc3cc(C(=O)N/N=C/c4ccc(O)c(OC)c4)ccc3[nH]2)cc1 [Compound 8g, (E)-N'-(4-hydroxy-3-methoxybenzylidene)-2-(4-methoxyphenyl)-1H-benzo[d]imidazole-5-carbohydrazide]

SMILES: COc1ccc(-c2nc3cc(C(=O)N/N=C/c4cccc(F)c4)ccc3[nH]2)cc1 [Compound 8i, (E)-N'-(3-fluorobenzylidene)-2-(4-methoxyphenyl)-1H-benzo[d]imidazole-5-carbohydrazide]
IC50 ([1]; IC50, yeast α-glucosidase): 88.1 ± 6 µM
melting point: > 250 °C

SMILES: COc1ccc(-c2nc3cc(C(=O)N/N=C/c4cccc(Oc5ccccc5)c4)ccc3[nH]2)cc1 [Compound 8e, (E)-2-(4-methoxyphenyl)-N'-(3-phenoxybenzylidene)-1H-benzo[d]imidazole-5-carbohydrazide]
IC50 ([1]; IC50, yeast α-glucosidase): 127 ± 6.5 µM
melting point: > 250 °C

SMILES: COc1ccc(-c2nc3cc(C(=O)N/N=C/c4cccs4)ccc3[nH]2)cc1 [Compound 8p, (E)-2-(4-methoxyphenyl)-N'-(thiophen-2-ylmethylene)-1H-benzo[d]imidazole-5-carbohydrazide]
IC50 ([1]; IC50, yeast α-glucosidase): 60.1 ± 3.6 µM
cytotoxicity (MTT) [2]: non-cytotoxic
melting point: > 250 °C
type of inhibition ([3]; Lineweaver–Burk plot): competitive inhibitor
Ki ([3]; secondary plot of Km versus inhibitor concentration): 60 µM
cytotoxicity (MTT) [4]: non-cytotoxic

SMILES: COc1ccc(-c2nc3cc(C(=O)N/N=C/c4cc(OC)c(OC)c(OC)c4)ccc3[nH]2)cc1 [Compound 8d, (E)-2-(4-methoxyphenyl)-N'-(3,4,5-trimethoxybenzylidene)-1H-benzo[d]imidazole-5-carbohydrazide]
inhibitory activity against α-glucosidase (in words) ([1]; yeast α-glucosidase): inactive

SMILES: COc1ccc(-c2nc3cc(C(=O)N/N=C/c4ccccc4)ccc3[nH]2)cc1 [Compound 8a, (E)-N'-benzylidene-2-(4-methoxyphenyl)-1H-benzo[d]imidazole-5-carbohydrazide]
IC50 ([1]; IC50, yeast α-glucosidase): 70.6 ± 6.8 µM
cytotoxicity (MTT) [2]: non-cytotoxic
melting point: > 250 °C
cytotoxicity (MTT) [4]: non-cytotoxic

SMILES: COc1ccc(-c2nc3cc(C(=O)N/N=C/c4ccc(F)cc4)ccc3[nH]2)cc1 [Compound 8j, (E)-N'-(4-fluorobenzylidene)-2-(4-methoxyphenyl)-1H-benzo[d]imidazole-5-carbohydrazide]
IC50 ([1]; IC50, yeast α-glucosidase): 84.1 ± 4.5 µM
melting point: > 250 °C

SMILES: COc1ccc(-c2nc3cc(C(=O)N/N=C/c4ccc(Cl)cc4)ccc3[nH]2)cc1 [Compound 8l, (E)-N'-(4-chlorobenzylidene)-2-(4-methoxyphenyl)-1H-benzo[d]imidazole-5-carbohydrazide]
IC50 ([1]; IC50, yeast α-glucosidase): 103 ± 5.5 µM
melting point: > 250 °C

SMILES: COc1ccc(-c2nc3cc(C(=O)N/N=C/c4ccccc4F)ccc3[nH]2)cc1 [Compound 8h, (E)-N'-(2-fluorobenzylidene)-2-(4-methoxyphenyl)-1H-benzo[d]imidazole-5-carbohydrazide]
IC50 ([1]; IC50, yeast α-glucosidase): 69 ± 4 µM
cytotoxicity (MTT) [2]: non-cytotoxic
cytotoxicity (MTT) [4]: non-cytotoxic

SMILES: COc1ccc(-c2nc3cc(C(=O)N/N=C/c4ccc([N+](=O)[O-])cc4)ccc3[nH]2)cc1 [Compound 8n, (E)-2-(4-methoxyphenyl)-N'-(4-nitrobenzylidene)-1H-benzo[d]imidazole-5-carbohydrazide]
IC50 ([1]; IC50, yeast α-glucosidase): 112 ± 5.7 µM
melting point: > 250 °C

SMILES: COc1ccc(/C=N/NC(=O)c2ccc3[nH]c(-c4ccc(OC)cc4)nc3c2)cc1 [Compound 8c, (E)-N'-(4-methoxybenzylidene)-2-(4-methoxyphenyl)-1H-benzo[d]imidazole-5-carbohydrazide]
IC50 ([1]; IC50, yeast α-glucosidase): 110 ± 5.5 µM
melting point: > 250 °C

SMILES: COc1ccc(-c2nc3cc(C(=O)N/N=C/c4ccc(C)cc4)ccc3[nH]2)cc1 [Compound 8b, (E)-2-(4-methoxyphenyl)-N'-(4-methylbenzylidene)-1H-benzo[d]imidazole-5-carbohydrazide]
IC50 ([1]; IC50, yeast α-glucosidase): 102 ± 5.6 µM
melting point: > 250 °C

SMILES: COc1ccc(-c2nc3cc(C(=O)N/N=C/c4ccccc4Cl)ccc3[nH]2)cc1 [Compound 8k, (E)-N'-(2-chlorobenzylidene)-2-(4-methoxyphenyl)-1H-benzo[d]imidazole-5-carbohydrazide]
IC50 ([1]; IC50, yeast α-glucosidase): 90 ± 7.5 µM
melting point: > 250 °C
